According to US11053219B2, “Substituted pyridines as TYK2 inhibitors” (FronThera U.S. Pharmaceuticals LLC, priority 2018, dated 2021):
pIC50, pKd: −log10 of the molar value. Read-outs that look alike come from different tables or passages of the source.

Tests used:
[1] = system: INFα induced pSTAT5 in human PBMC; assay: INFα induced pSTAT5 in human PBMC; type: cell-based; details: read-out: p-STAT5 IC50
Method: Cells were seeded in a round bottom 96-well plate at the concentration of 200,000 cells/well. A 10-point dilution series of test compound (top dose 10 uM, 1:5 dilution) was added to the well using the liquid dispenser (Tecan D300e) and incubated for 1 hour at 37 C. Then human INFα recombinant protein (R&D Systems) was added to the well at the final concentration of 5000 units/ml and incubated for 15 minutes at 37 C. Cell lysates were prepared and analyzed by Phospho STAT3 (Tyr705) cellular kit (Cisbio) or Phospho STAT5 (Tyr693) Kit (Meso Scale Discovery) following manufacturer's protocol.
For calculation of the inhibition rate, the relative pSTAT signal of each well=pSTAT signal of each well−the average pSTAT signal of baseline. The inhibition %=(the average pSTAT signal of INFα treatment wells−the relative of pSTAT signal in each compound containing well)/the average pSTAT signal of INFα treatment wells*100%
The curve was plotted as the inhibition % (y-axis) vs. compounds concentration (x-axis) and was fitted with log(inhibitor) vs. normalized response—Variable slope by GraphPad Prism7.0.

TYK2 (JH2 domain) = TYK2 (JH2 domain) (Homo sapiens (Human), UniProt P29597); assay: TYK2 JH2 domain binding assay (DiscoverX KINOMEscan); details: 11-point 3-fold dilution, duplicate
Chain of TYK2 (JH2 domain) (P29597 589-875): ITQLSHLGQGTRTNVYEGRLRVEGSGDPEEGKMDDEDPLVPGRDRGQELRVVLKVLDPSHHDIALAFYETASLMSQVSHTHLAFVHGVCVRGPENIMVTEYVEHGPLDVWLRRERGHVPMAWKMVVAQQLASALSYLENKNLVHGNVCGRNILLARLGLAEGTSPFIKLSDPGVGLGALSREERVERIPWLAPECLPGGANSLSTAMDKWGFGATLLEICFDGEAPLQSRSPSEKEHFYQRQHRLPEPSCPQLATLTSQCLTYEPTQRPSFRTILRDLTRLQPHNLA
Method: The assay is performed by combining three components: DNA-tagged kinase; immobilized ligand; and a test compound. The ability of the test compound to compete with the immobilized ligand is measured via quantitative PCR of the DNA tag.
The liganded beads were blocked with excess biotin and washed with blocking buffer (SeaBlock (Pierce), 1% BSA, 0.05% Tween 20, 1 mM DTT) to remove unbound ligand and to reduce non-specific binding. […] Test compounds were prepared as 111× stocks in 100% DMSO. All test compounds were shipped to DiscoverX in DMSO with concentration of 10 mM. Kds were determined using an 11-point 3-fold compound dilution series with three DMSO control points. Each compound was tested in duplicate. […] The compounds were then diluted directly into the assays such that the final concentration of DMSO was 0.9%. All reactions performed in polypropylene 384-well plate. Each was a final volume of 0.02 ml. […] The kinase concentration in the eluates was measured by qPCR.
The amount of kinase measured by qPCR (Signal; y-axis) is plotted against the corresponding compound concentration in nM in log 10 scale (x-axis). Binding constants (Kds) were calculated with a standard dose-response curve using the Hill equation:
The Hill Slope was set to −1.
Curves were fitted using anon-linear least square fit with the Levenberg-Marquardt algorithm.

[2] = system: IL12-induced p-STAT4 in human PBMC; assay: IL-12 induced pSTAT4 in human PBMC; type: cell-based; details: read-out: p-STAT4 IC50

SMILES	pIC50 ([1]; human PBMC, INFα 5000 units/ml)	pKd (TYK2 (JH2 domain))	pIC50 ([2]; Homo sapiens, PBMC)	pIC50 ([2]; human PBMC, IL-12 10 ng/ml)	pIC50 ([1]; Homo sapiens, PBMC)
[2H]C([2H])([2H])NC(=O)c1nnc(N2CCN(C(C)C)C2=O)cc1Nc1cccc(-c2ncn(C)n2)c1OC [Example 6, 6-(3-isopropyl-2-oxo-imidazolidin-1-yl)-4-[2-methoxy-3-(1-methyl-1,2,4-triazol-3-yl)anilino]-N-(trideuteriomethyl)pyridazine-3-carboxamide]	> 7.00	≥ 9.00	> 7.00		
[2H]C([2H])([2H])NC(=O)c1nnc(N2CCN(C3CC(F)(F)C3)C2=O)cc1Nc1cccc(-c2ncn(C)n2)c1OC [Example 10, 6-[3-(3,3-difluorocyclobutyl)-2-oxo-imidazolidin-1-yl]-4-[2-methoxy-3-(1-methyl-1,2,4-triazol-3-yl)anilino]-N-(trideuteriomethyl)pyridazine-3-carboxamide]	> 7.00	≥ 9.00		> 7.00	
[2H]C([2H])([2H])NC(=O)c1nnc(N2CCN(C3CCC3)C2=O)cc1Nc1cccc(-c2ncn(C)n2)c1OC [Example 11, 6-(3-cyclobutyl-2-oxo-imidazolidin-1-yl)-4-[2-methoxy-3-(1-methyl-1,2,4-triazol-3-yl)anilino]-N-(trideuteriomethyl)pyridazine-3-carboxamide]	> 7.00	≥ 9.00		> 7.00	
[2H]C([2H])([2H])NC(=O)c1nnc(N2CCN(C(C)C)C2=O)cc1Nc1cccc(-c2ncn(C)n2)c1OC([2H])([2H])[2H] [Example 14, 6-(3-isopropyl-2-oxo-imidazolidin-1-yl)-4-[3-(1-methyl-1,2,4-triazol-3-yl)-2-(trideuteriomethoxy)anilino]-N-(trideuteriomethyl)pyridazine-3-carboxamide]	> 7.00	≥ 9.00		> 7.00	
[2H]C([2H])([2H])NC(=O)c1nnc(N2CCN(C(C)C)C2=O)cc1Nc1cccc(-c2ncn(C([2H])([2H])[2H])n2)c1OC [Example 15, 6-(3-isopropyl-2-oxo-imidazolidin-1-yl)-4-[2-methoxy-3-[1-(trideuteriomethyl)-1,2,4-triazol-3-yl]anilino]-N-(trideuteriomethyl)pyridazine-3-carboxamide]	> 7.00	≥ 9.00		> 7.00	
[2H]C([2H])([2H])NC(=O)c1nnc(N2CCN(C3(C)COC3)C2=O)cc1Nc1cccc(-c2ncn(C)n2)c1OC [Example 16, 4-[2-methoxy-3-(1-methyl-1,2,4-triazol-3-yl)anilino]-6-[3-(3-methyloxetan-3-yl)-2-oxo-imidazolidin-1-yl]-N-(trideuteriomethyl)pyridazine-3-carboxamide]	> 7.00	≥ 9.00		> 7.00	
COc1c(Nc2cc(NC(=O)C3CC3)ncc2C(=O)C2CC2)cccc1-c1ncn(C)n1 [Example 27]			> 7.00		> 7.00
COc1c(Nc2cc(Nc3ccccn3)ncc2C(=O)C2CC2)cccc1-c1ncn(C)n1 [Example 37]	> 7.00	≥ 9.00		> 7.00	
[2H]C([2H])([2H])NC(=O)c1cnc(N2CCN(C(C)C)C2=O)cc1Nc1cccc(-c2ncn(C)n2)c1OC [Example 48]		≥ 9.00		> 7.00	
[2H]C([2H])([2H])NC(=O)c1nnc(NC(=O)N2CC(C)C2)cc1Nc1cccc(-c2ncn(C)n2)c1OC [Example 49]	> 7.00	≥ 9.00		> 7.00	
[2H]C([2H])([2H])NC(=O)c1nnc(NC(=O)N2CCC2)cc1Nc1cccc(-c2ncn(C)n2)c1OC [Example 50]		≥ 9.00		> 7.00	
COc1c(Nc2cc(NC(=O)C3CC3)ncc2C(=O)C2CC2)cccc1-c1nnn(C)n1 [Example 51]	> 7.00	≥ 9.00		> 7.00	
COc1c(Nc2cc(Nc3ccncn3)ncc2C(=O)C2CC2)cccc1-c1ncn(C)n1 [Example 52]		≥ 9.00		> 7.00	
[2H]C([2H])([2H])n1cnc(-c2cccc(Nc3cc(NC(=O)C4CC4)ncc3C(=O)C3CC3)c2OC)n1 [Example 54]	> 7.00			> 7.00	
[2H]C([2H])([2H])NC(=O)c1nnc(N2CCN(C3C[C@@H]3F)C2=O)cc1Nc1cccc(-c2ncn(C)n2)c1OC (some centres unmarked) [Example 78]		≥ 9.00		> 7.00	
[2H]C([2H])([2H])NC(=O)c1nnc(N2CCN(C(C)CO)C2=O)cc1Nc1cccc(-c2ncn(C)n2)c1OC (centres unmarked) [Example 85]		≥ 9.00		6.00 to 7.00	
[2H]C([2H])([2H])NC(=O)c1nnc(N2CCN(C3(C)CC3)C2=O)cc1Nc1cccc(-c2ncn(C)n2)c1OC [Example 88]		≥ 9.00		> 7.00	
[2H]C([2H])([2H])NC(=O)c1nnc(N2CCN(C(C)(C)C)C2=O)cc1Nc1cccc(-c2ncn(C)n2)c1OC [Example 89]	> 7.00	≥ 9.00		> 7.00	
[2H]C([2H])([2H])NC(=O)c1nnc(N2CCN(CCCC)C2=O)cc1Nc1cccc(-c2ncn(C)n2)c1OC [Example 91]		≥ 9.00		> 7.00	
[2H]C([2H])([2H])NC(=O)c1nnc(N2CCN(C3CCC(F)(F)CC3)C2=O)cc1Nc1cccc(-c2ncn(C)n2)c1OC [Example 94]		≥ 9.00		> 7.00	
[2H]C([2H])([2H])NC(=O)c1nnc(N2CCN(C3(C#N)CC3)C2=O)cc1Nc1cccc(-c2ncn(C)n2)c1OC [Example 95]		≥ 9.00		> 7.00	
[2H]C([2H])([2H])NC(=O)c1nnc(N2CCN(CC3CCC3)C2=O)cc1Nc1cccc(-c2ncn(C)n2)c1OC [Example 96]		≥ 9.00		> 7.00	
[2H]C([2H])([2H])NC(=O)c1nnc(N2CCN(C3CCCOC3)C2=O)cc1Nc1cccc(-c2ncn(C)n2)c1OC (centres unmarked) [Example 98]		≥ 9.00		> 7.00	
[2H]C([2H])([2H])NC(=O)c1nnc(N2CCN(CCC)C2=O)cc1Nc1cccc(-c2ncn(C)n2)c1OC [Example 99]		≥ 9.00		> 7.00	
[2H]C([2H])([2H])NC(=O)c1nnc(N2CCN(C3CC(C)C3)C2=O)cc1Nc1cccc(-c2ncn(C)n2)c1OC (centres unmarked) [Example 100]		≥ 9.00		> 7.00	
[2H]C([2H])([2H])NC(=O)c1nnc(N2CCN(C(C([2H])([2H])[2H])C([2H])([2H])[2H])C2=O)cc1Nc1cccc(-c2ncn(C)n2)c1OC [Example 103]		≥ 9.00		> 7.00	
